{"source": "patent US20170190671A1", "about": "“BIS(ARYL)CATECHOL DERIVATIVES AS HERBICIDES” (E I DU PONT DE NEMOURS AND COMPANY, priority 2014, published 2017)", "assay_type_in_all_cases": "in vivo", "key": {"[1]": {"tested_on": "ducksalad (Heteranthera limosa)", "test": "Test C flooded paddy", "settings": "Flood, scale 0 to 100", "text": "(§1) At time of treatment, test pots were flooded to 3 cm above the soil surface, treated by application of test compounds directly to the paddy water, and then maintained at that water depth for the duration of the test. Treated plants and controls were maintained in a greenhouse for 13 to 15 days, after which time all species were compared to controls and visually evaluated. […] A dash (-) response means no test result."}, "[2]": {"tested_on": "barnyardgrass (Echinochloa crus-galli)", "test": "Test C flooded paddy", "settings": "Flood, scale 0 to 100", "text": "as §1"}, "[3]": {"tested_on": "rice (Oryza sativa)", "test": "Test C flooded paddy", "settings": "Flood, scale 0 to 100", "text": "as §1"}, "[4]": {"tested_on": "sedge, umbrella (small-flower umbrella sedge, Cyperus difformis)", "test": "Test C flooded paddy", "settings": "Flood, scale 0 to 100", "text": "as §1"}, "[5]": {"tested_on": "velvetleaf (Abutilon theophrasti)", "test": "Test A postemergence", "settings": "0 to 100 scale", "procedure,_shortened": "(§2)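 Compounds in non-phytotoxic solvent with surfactant applied as soil spray preemergence, or postemergence to plants 2-10 cm at one- to two-leaf stage, in loam/sand. After approximately 10 days in greenhouse, injury rated visually versus untreated controls, 0 (no effect) to 100 (complete control).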"}, "[6]": {"tested_on": "morningglory (Ipomoea spp.)", "test": "Test A postemergence", "settings": "0 to 100 scale", "procedure,_shortened": "as §2"}, "[7]": {"tested_on": "barnyardgrass (Echinochloa crus-galli)", "test": "Test A postemergence", "settings": "Echinochloa crus-galli, post-emergence, 240 h, 0 to 100 scale, read-out: Plant response rating, Barnyardgrass", "procedure,_shortened": "as §2"}, "[8]": {"tested_on": "large (Lg) crabgrass (Digitaria sanguinalis)", "test": "Test A postemergence", "settings": "0 to 100 scale", "procedure,_shortened": "as §2"}, "[9]": {"tested_on": "pigweed (Amaranthus retroflexus)", "test": "Test A postemergence", "settings": "Amaranthus retroflexus, post-emergence, 240 h, 0 to 100 scale, read-out: Plant response rating, Pigweed", "procedure,_shortened": "as §2"}, "[10]": {"tested_on": "giant foxtail (Setaria faberii)", "test": "Test A postemergence", "settings": "Setaria faberi, post-emergence, 240 h, 0 to 100 scale, read-out: Plant response rating, Foxtail, Giant", "procedure,_shortened": "as §2"}, "[11]": {"tested_on": "corn (Zea mays)", "test": "Test A postemergence", "settings": "Zea mays, post-emergence, 240 h, 0 to 100 scale", "procedure,_shortened": "as §2"}, "[12]": {"tested_on": "wheat (Triticum aestivum)", "test": "Test A postemergence", "settings": "Triticum aestivum, post-emergence, 240 h, 0 to 100 scale, read-out: Plant response rating, Wheat", "procedure,_shortened": "as §2"}, "[13]": {"tested_on": "velvetleaf (Abutilon theophrasti)", "test": "Test A preemergence", "settings": "0 to 100 scale", "procedure,_shortened": "as §2"}, "[14]": {"tested_on": "morningglory (Ipomoea spp.)", "test": "Test A preemergence", "settings": "0 to 100 scale", "procedure,_shortened": "as §2"}, "[15]": {"tested_on": "barnyardgrass (Echinochloa crus-galli)", "test": "Test A preemergence", "settings": "Echinochloa crus-galli, pre-emergence, 240 h, 0 to 100 scale, read-out: Plant response rating, Barnyardgrass", "procedure,_shortened": "as §2"}, "[16]": {"tested_on": "large (Lg) crabgrass (Digitaria sanguinalis)", "test": "Test A preemergence", "settings": "0 to 100 scale", "procedure,_shortened": "as §2"}, "[17]": {"tested_on": "pigweed (Amaranthus retroflexus)", "test": "Test A preemergence", "settings": "Amaranthus retroflexus, pre-emergence, 240 h, 0 to 100 scale, read-out: Plant response rating, Pigweed", "procedure,_shortened": "as §2"}, "[18]": {"tested_on": "giant foxtail (Setaria faberii)", "test": "Test A preemergence", "settings": "Setaria faberi, pre-emergence, 240 h, 0 to 100 scale, read-out: Plant response rating, Foxtail, Giant", "procedure,_shortened": "as §2"}, "[19]": {"tested_on": "corn (Zea mays)", "test": "Test A preemergence", "settings": "0 to 100 scale", "procedure,_shortened": "as §2"}, "[20]": {"tested_on": "wheat (Triticum aestivum)", "test": "Test A preemergence", "settings": "0 to 100 scale", "procedure,_shortened": "as §2"}, "[21]": {"tested_on": "ducksalad (Heteranthera limosa)", "test": "Test B flooded paddy", "settings": "Heteranthera limosa, 336 h; 250 g ai/ha, Flood, 13 to 15 days, scale 0 (no effect) to 100 (complete control); read-out: Plant response rating, Ducksalad", "procedure,_shortened": "(§3)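 Greenhouse pots flooded to 3 cm above soil at time of treatment received compound via the water, which stayed at that level.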"}, "[22]": {"tested_on": "barnyardgrass (Echinochloa crus-galli)", "test": "Test B flooded paddy", "settings": "Echinochloa crus-galli, 336 h; 250 g ai/ha, Flood, 13 to 15 days, scale 0 (no effect) to 100 (complete control); read-out: Plant response rating, Barnyardgrass", "procedure,_shortened": "as §3"}, "[23]": {"tested_on": "rice (Oryza sativa)", "test": "Test B flooded paddy", "settings": "Oryza sativa, 336 h; 250 g ai/ha, Flood, 13 to 15 days, scale 0 (no effect) to 100 (complete control); read-out: Plant response rating, Rice", "procedure,_shortened": "as §3"}, "[24]": {"tested_on": "sedge, umbrella (small-flower umbrella sedge, Cyperus difformis)", "test": "Test B flooded paddy", "settings": "Cyperus difformis, 336 h; 250 g ai/ha, Flood, 13 to 15 days, scale 0 (no effect) to 100 (complete control); read-out: Plant response rating, Sedge, Umbrella", "procedure,_shortened": "as §3"}}}
{"compound": "N#Cc1cccc(Oc2ncc(Br)cn2)c1Oc1ncc(Br)cn1", "note": "[Compound 1, 2,3-bis[(5-bromo-2-pyrimidinyl)oxy]benzonitrile]", "values": [{"measurement": "Plant response rating, Ducksalad", "setting": "[1]; 31 g ai/ha", "value": 0}, {"measurement": "Plant response rating, Ducksalad", "setting": "[1]; 62 g ai/ha", "value": 0}, {"measurement": "Plant response rating, Ducksalad", "setting": "[1]; 125 g ai/ha", "value": 50}, {"measurement": "Plant response rating, Ducksalad", "setting": "[1]; 250 g ai/ha", "value": 80}, {"measurement": "Plant response rating, Barnyardgrass", "setting": "[2]; 31 g ai/ha", "value": 0}, {"measurement": "Plant response rating, Barnyardgrass", "setting": "[2]; 62 g ai/ha", "value": 0}, {"measurement": "Plant response rating, Barnyardgrass", "setting": "[2]; 125 g ai/ha", "value": 0}, {"measurement": "Plant response rating, Barnyardgrass", "setting": "[2]; 250 g ai/ha", "value": 0}, {"measurement": "Plant response rating, Rice", "setting": "[3]; 31 g ai/ha", "value": 0}, {"measurement": "Plant response rating, Rice", "setting": "[3]; 62 g ai/ha", "value": 0}, {"measurement": "Plant response rating, Rice", "setting": "[3]; 125 g ai/ha", "value": 0}, {"measurement": "Plant response rating, Rice", "setting": "[3]; 250 g ai/ha", "value": 0}, {"measurement": "Plant response rating, Sedge, Umbrella", "setting": "[4]; 31 g ai/ha", "value": 0}, {"measurement": "Plant response rating, Sedge, Umbrella", "setting": "[4]; 62 g ai/ha", "value": 30}, {"measurement": "Plant response rating, Sedge, Umbrella", "setting": "[4]; 125 g ai/ha", "value": 65}, {"measurement": "Plant response rating, Sedge, Umbrella", "setting": "[4]; 250 g ai/ha", "value": 80}, {"measurement": "Plant response rating, Velvetleaf", "setting": "[5]; 125 g ai/ha", "value": 70}, {"measurement": "Plant response rating, Velvetleaf", "setting": "[5]; 500 g ai/ha", "value": 90}, {"measurement": "Plant response rating, Morningglory", "setting": "[6]; 125 g ai/ha", "value": 30}, {"measurement": "Plant response rating, Morningglory", "setting": "[6]; 500 g ai/ha", "value": 30}, {"measurement": "pest or weed control at 125 g/ha", "setting": "[7]; 125 g ai/ha", "value": 70, "unit": "%"}, {"measurement": "pest or weed control at 500 g/ha", "setting": "[7]; 500 g ai/ha", "value": 90, "unit": "%"}, {"measurement": "Plant response rating, Crabgrass, Large", "setting": "[8]; 125 g ai/ha", "value": 60}, {"measurement": "Plant response rating, Crabgrass, Large", "setting": "[8]; 500 g ai/ha", "value": 100}, {"measurement": "pest or weed control at 125 g/ha", "setting": "[9]; 125 g ai/ha", "value": 100, "unit": "%"}, {"measurement": "pest or weed control at 500 g/ha", "setting": "[9]; 500 g ai/ha", "value": 100, "unit": "%"}, {"measurement": "pest or weed control at 125 g/ha", "setting": "[10]; 125 g ai/ha", "value": 70, "unit": "%"}, {"measurement": "pest or weed control at 500 g/ha", "setting": "[10]; 500 g ai/ha", "value": 90, "unit": "%"}, {"measurement": "Corn plant response rating (crop injury, 0 = no effect, 100 = complete kill) at 125 g/ha", "setting": "[11]; 125 g ai/ha", "value": 30, "unit": "%"}, {"measurement": "Corn plant response rating (crop injury, 0 = no effect, 100 = complete kill) at 500 g/ha", "setting": "[11]; 500 g ai/ha", "value": 80, "unit": "%"}, {"measurement": "plant injury at 125 g/ha", "setting": "[12]; 125 g ai/ha", "value": 30, "unit": "%"}, {"measurement": "plant injury at 500 g/ha", "setting": "[12]; 500 g ai/ha", "value": 60, "unit": "%"}, {"measurement": "Plant response rating, Velvetleaf", "setting": "[13]; 125 g ai/ha", "value": 70}, {"measurement": "Plant response rating, Velvetleaf", "setting": "[13]; 500 g ai/ha", "value": 100}, {"measurement": "Plant response rating, Morningglory", "setting": "[14]; 125 g ai/ha", "value": 30}, {"measurement": "Plant response rating, Morningglory", "setting": "[14]; 500 g ai/ha", "value": 100}, {"measurement": "pest or weed control at 125 g/ha", "setting": "[15]; 125 g ai/ha", "value": 70, "unit": "%"}, {"measurement": "pest or weed control at 500 g/ha", "setting": "[15]; 500 g ai/ha", "value": 90, "unit": "%"}, {"measurement": "Plant response rating, Crabgrass, Large", "setting": "[16]; 125 g ai/ha", "value": 100}, {"measurement": "Plant response rating, Crabgrass, Large", "setting": "[16]; 500 g ai/ha", "value": 100}, {"measurement": "pest or weed control at 125 g/ha", "setting": "[17]; 125 g ai/ha", "value": 100, "unit": "%"}, {"measurement": "pest or weed control at 500 g/ha", "setting": "[17]; 500 g ai/ha", "value": 100, "unit": "%"}, {"measurement": "pest or weed control at 125 g/ha", "setting": "[18]; 125 g ai/ha", "value": 90, "unit": "%"}, {"measurement": "pest or weed control at 500 g/ha", "setting": "[18]; 500 g ai/ha", "value": 100, "unit": "%"}, {"measurement": "Plant response rating, Corn", "setting": "[19]; 125 g ai/ha", "value": 20}, {"measurement": "Plant response rating, Corn", "setting": "[19]; 500 g ai/ha", "value": 60}, {"measurement": "Plant response rating, Wheat", "setting": "[20]; 125 g ai/ha", "value": 20}, {"measurement": "Plant response rating, Wheat", "setting": "[20]; 500 g ai/ha", "value": 60}, {"measurement": "pest or weed control at 250 g/ha", "setting": "[21]", "value": 90, "unit": "%"}, {"measurement": "pest or weed control at 250 g/ha", "setting": "[22]", "value": 40, "unit": "%"}, {"measurement": "plant injury at 250 g/ha", "setting": "[23]", "value": 0, "unit": "%"}, {"measurement": "pest or weed control at 250 g/ha", "setting": "[24]", "value": 95, "unit": "%"}]}
